Measurements published in ChEMBL document CHEMBL1122628, “Nonsteroidal antiinflammatory agents. 14. Synthesis and pharmacological profile of 6-chloro-5-(cyclopentylmethyl)indan-1-carboxylic acid” (J Med Chem, 1984).

Legend:
Rattus norvegicus [1] = species: Rattus norvegicus; test: Gastrointestinal tolerability was evaluated in rats and amount blood loss was reported.; format: functional
Rattus norvegicus [2] = species: Rattus norvegicus; test: Gastrointestinal tolerability was evaluated under chronic conditions, in rats. The ulcerogenic dose from a 4-week toxicity study, was reported.; format: functional
Rattus norvegicus [3] = test: Antiinflammatory activity was evaluated in an adjuvant arthritis (subchronic inflammation) test, after administering compound orally in rats.; format: functional; settings: po
Rattus norvegicus [4] = species: Rattus norvegicus; test: Gastrointestinal tolerability was evaluated under chronic conditions, in rats. The ulcerogenic dose was reported.; format: functional
Rattus norvegicus [5] = species: Rattus norvegicus; test: Gastrointestinal tolerability was evaluated under acute conditions, in rats. The ulcerogenic dose was reported.; format: functional
Rattus norvegicus [6] = test: Antiinflammatory activity was evaluated in an carrageenan edema (acute inflammation) test, after administering compound orally in rats.; format: functional; settings: po
Rattus norvegicus [7] = test: Antiinflammatory activity was evaluated in an carrageenan edema (acute inflammation) test, after administering compound orally in rats; 15-30; format: functional; settings: po
Rattus norvegicus [8] = species: Rattus norvegicus; test: Gastrointestinal tolerability was evaluated in rats and amount blood loss was reported; format: functional
Rattus norvegicus [9] = species: Rattus norvegicus; test: Gastrointestinal tolerability was evaluated under acute conditions, in rats. The ulcerogenic dose was reported; format: functional
Rattus norvegicus [10] = test: Antiinflammatory activity was evaluated in an adjuvant arthritis (subchronic inflammation) test after administering compound orally in rats; format: functional; settings: po
Rattus norvegicus [11] = species: Rattus norvegicus; test: Gastrointestinal tolerability was evaluated in rats and compound dose that causes lethality was reported; format: toxicity, organism-based; settings: in vivo
Rattus norvegicus [12] = species: Rattus norvegicus; test: Gastrointestinal tolerability was evaluated under chronic conditions, in rats. The ulcerogenic dose was reported; format: functional
Rattus norvegicus [13] = test: Antiinflammatory activity was evaluated in an carrageenan edema (acute inflammation) test, after administering compound orally in rats; format: functional; settings: po
Rattus norvegicus [14] = test: Antiinflammatory activity was evaluated in an adjuvant arthritis (subchronic inflammation) test after administering compound orally in rats.; format: functional; settings: po
Rattus norvegicus [15] = species: Rattus norvegicus; test: Gastrointestinal tolerability was evaluated under chronic conditions, in rats. The ulcerogenic dose was reported; 30-100; format: functional
Rattus norvegicus [16] = test: Antiinflammatory activity was evaluated in an carrageenan edema (acute inflammation) test, after administering compound orally in rats; 50-100; format: functional; settings: po
Rattus norvegicus [17] = species: Rattus norvegicus; test: Gastrointestinal tolerability was evaluated in rats and compound dose that causes lethality was reported.; format: toxicity, organism-based; settings: in vivo

O=C(O)C1CCc2cc(CC3CCCC3)c(Cl)cc21 (configuration not stated)
Blood loss (Rattus norvegicus [1]): >100 mg/kg
UD (Rattus norvegicus [2]): >400 mg/kg
ED40 (Rattus norvegicus [3]): 30 mg/kg
UD (Rattus norvegicus [4]): >100 mg/kg
UD (Rattus norvegicus [5]): >400 mg/kg
ED50 (Rattus norvegicus [6]): 30 mg/kg

CC(C(=O)O)c1ccc2oc(-c3ccc(Cl)cc3)nc2c1 (configuration not stated) [BENOXAPROFEN]
ED50 (Rattus norvegicus [7]): 15 mg/kg
Blood loss (Rattus norvegicus [8]): <50 mg/kg
UD (Rattus norvegicus [9]): >200 mg/kg
ED40 (Rattus norvegicus [10]): 10 mg/kg
Lethality (Rattus norvegicus [11]): < 50 mg/kg
UD (Rattus norvegicus [12]): <30 mg/kg

O=C(O)C1CCc2cc(C3CCCCC3)c(Cl)cc21 (configuration not stated) [CLIDANAC]
ED40 (Rattus norvegicus [3]): 4 mg/kg
UD (Rattus norvegicus [5]): <3 mg/kg
ED50 (Rattus norvegicus [6]): 4 mg/kg

O=C(O)Cc1ccccc1Nc1c(Cl)cccc1Cl [DICLOFENAC]
ED50 (Rattus norvegicus [13]): 2 mg/kg
Blood loss (Rattus norvegicus [8]): 20 mg/kg
UD (Rattus norvegicus [5]): 20 mg/kg
UD (Rattus norvegicus [12]): 20 mg/kg
ED40 (Rattus norvegicus [14]): 2 mg/kg

CC(C)Cc1ccc(C(C)C(=O)O)cc1 (configuration not stated) [IBUPROFEN]
UD (Rattus norvegicus [15]): 30 mg/kg
ED50 (Rattus norvegicus [16]): 50 mg/kg
Blood loss (Rattus norvegicus [8]): 200 mg/kg
UD (Rattus norvegicus [9]): 30 mg/kg
ED40 (Rattus norvegicus [10]): > 150 mg/kg
Lethality (Rattus norvegicus [11]): 400 mg/kg

COc1ccc2c(c1)c(CC(=O)O)c(C)n2C(=O)c1ccc(Cl)cc1 [INDOMETHACIN]
Blood loss (Rattus norvegicus [1]): 4 mg/kg
ED40 (Rattus norvegicus [3]): 2 mg/kg
UD (Rattus norvegicus [4]): 4 mg/kg
Lethality (Rattus norvegicus [17]): 8 mg/kg
UD (Rattus norvegicus [5]): 4 mg/kg
ED50 (Rattus norvegicus [6]): 4 mg/kg

COc1ccc2cc([C@H](C)C(=O)O)ccc2c1 [NAPROXEN]
Blood loss (Rattus norvegicus [1]): >30 mg/kg
ED40 (Rattus norvegicus [3]): 10 mg/kg
Lethality (Rattus norvegicus [17]): > 30 mg/kg
UD (Rattus norvegicus [5]): 5 mg/kg
ED50 (Rattus norvegicus [6]): 15 mg/kg
